The source made the active and inactive calls. No rule for the calls is given here.
Test system: CCRIS mutagenicity, Ames/micronucleus/aberration tests
Assay: CCRIS mutagenicity studies
Conditions: Test System: AMES SALMONELLA TYPHIMURIUM
[1] = Strain/Indicator: TA98, Metabolic Activation: NONE, Method: PREINCUBATION
[2] = Strain/Indicator: TA100, Metabolic Activation: NONE, Method: PREINCUBATION

Measured: mutagenic call

CC(C)(C)c1cc(O)ccc1O
inactive: Strain/Indicator: TA97, Metabolic Activation: HAMSTER, LIVER, S-9, AROCLOR 1254 (10%), Method: PREINCUBATION inactive; negative | Strain/Indicator: TA97, Metabolic Activation: HAMSTER, LIVER, S-9, AROCLOR 1254 (30%), Method: PREINCUBATION inactive; negative | Strain/Indicator: TA97, Metabolic Activation: NONE, Method: PREINCUBATION inactive; negative | Strain/Indicator: TA97, Metabolic Activation: NONE, Method: STANDARD PLATE inactive; negative | Strain/Indicator: TA97, Metabolic Activation: RAT, LIVER, S-9, AROCLOR 1254 (10%), Method: PREINCUBATION inactive; negative | Strain/Indicator: TA97, Metabolic Activation: RAT, LIVER, S-9, AROCLOR 1254 (30%), Method: PREINCUBATION inactive; negative | Strain/Indicator: TA97, Metabolic Activation: RAT, LIVER, S-9, AROCLOR, Method: STANDARD PLATE inactive; negative | Strain/Indicator: TA97, Metabolic Activation: RAT, LIVER, S-9, PCB, Method: PREINCUBATION inactive; negative | Strain/Indicator: TA98, Metabolic Activation: HAMSTER, LIVER, S-9, AROCLOR 1254 (10%), Method: PREINCUBATION inactive; negative | Strain/Indicator: TA98, Metabolic Activation: HAMSTER, LIVER, S-9, AROCLOR 1254 (30%), Method: PREINCUBATION inactive; negative | [1] inactive; negative | Strain/Indicator: TA98, Metabolic Activation: RAT, LIVER, S-9, AROCLOR 1254 (10%), Method: PREINCUBATION inactive; negative | Strain/Indicator: TA98, Metabolic Activation: RAT, LIVER, S-9, AROCLOR 1254 (30%), Method: PREINCUBATION inactive; negative | Strain/Indicator: TA98, Metabolic Activation: RAT, LIVER, S-9, PCB, Method: PREINCUBATION inactive; negative | Strain/Indicator: TA100, Metabolic Activation: HAMSTER, LIVER, S-9, AROCLOR 1254 (10%), Method: PREINCUBATION inactive; negative | Strain/Indicator: TA100, Metabolic Activation: HAMSTER, LIVER, S-9, AROCLOR 1254 (30%), Method: PREINCUBATION inactive; negative | [2] inactive; negative | Strain/Indicator: TA100, Metabolic Activation: NONE, Method: STANDARD PLATE inactive; negative | Strain/Indicator: TA100, Metabolic Activation: RAT, LIVER, S-9, AROCLOR 1254 (10%), Method: PREINCUBATION inactive; negative | Strain/Indicator: TA100, Metabolic Activation: RAT, LIVER, S-9, AROCLOR 1254 (30%), Method: PREINCUBATION inactive; negative | Strain/Indicator: TA100, Metabolic Activation: RAT, LIVER, S-9, AROCLOR, Method: STANDARD PLATE inactive; negative | Strain/Indicator: TA100, Metabolic Activation: RAT, LIVER, S-9, PCB, Method: PREINCUBATION inactive; negative | Strain/Indicator: TA102, Metabolic Activation: HAMSTER, LIVER, S-9, AROCLOR 1254 (10%), Method: PREINCUBATION inactive; negative | Strain/Indicator: TA102, Metabolic Activation: HAMSTER, LIVER, S-9, AROCLOR 1254 (30%), Method: PREINCUBATION inactive; negative | Strain/Indicator: TA102, Metabolic Activation: NONE, Method: PREINCUBATION inactive; negative | Strain/Indicator: TA102, Metabolic Activation: NONE, Method: STANDARD PLATE inactive; negative | Strain/Indicator: TA102, Metabolic Activation: RAT, LIVER, S-9, AROCLOR 1254 (10%), Method: PREINCUBATION inactive; negative | Strain/Indicator: TA102, Metabolic Activation: RAT, LIVER, S-9, AROCLOR 1254 (30%), Method: PREINCUBATION inactive; negative | Strain/Indicator: TA102, Metabolic Activation: RAT, LIVER, S-9, AROCLOR, Method: STANDARD PLATE inactive; negative | Strain/Indicator: TA102, Metabolic Activation: RAT, LIVER, S-9, PCB, Method: PREINCUBATION inactive; negative | Strain/Indicator: TA104, Metabolic Activation: NONE, Method: PREINCUBATION inactive; negative | Strain/Indicator: TA104, Metabolic Activation: NONE, Method: STANDARD PLATE inactive; negative | Strain/Indicator: TA104, Metabolic Activation: RAT, LIVER, S-9, AROCLOR, Method: PREINCUBATION inactive; negative | Strain/Indicator: TA104, Metabolic Activation: RAT, LIVER, S-9, AROCLOR, Method: STANDARD PLATE inactive; negative

Brc1c(Br)c(Br)c(Br)c(Br)c1Br
inactive: Strain/Indicator: TA98, Metabolic Activation: HAMSTER, LIVER, S-9, AROCLOR 1254, Method: PREINCUBATION inactive; negative | [1] inactive; negative | Strain/Indicator: TA98, Metabolic Activation: RAT, LIVER, S-9, AROCLOR 1254, Method: PREINCUBATION inactive; negative | Strain/Indicator: TA100, Metabolic Activation: HAMSTER, LIVER, S-9, AROCLOR 1254, Method: PREINCUBATION inactive; negative | [2] inactive; negative | Strain/Indicator: TA100, Metabolic Activation: RAT, LIVER, S-9, AROCLOR 1254, Method: PREINCUBATION inactive; negative | Strain/Indicator: TA1535, Metabolic Activation: HAMSTER, LIVER, S-9, AROCLOR 1254, Method: PREINCUBATION inactive; negative | Strain/Indicator: TA1535, Metabolic Activation: NONE, Method: PREINCUBATION inactive; negative | Strain/Indicator: TA1535, Metabolic Activation: RAT, LIVER, S-9, AROCLOR 1254, Method: PREINCUBATION inactive; negative | Strain/Indicator: TA1537, Metabolic Activation: HAMSTER, LIVER, S-9, AROCLOR 1254, Method: PREINCUBATION inactive; negative | Strain/Indicator: TA1537, Metabolic Activation: NONE, Method: PREINCUBATION inactive; negative | Strain/Indicator: TA1537, Metabolic Activation: RAT, LIVER, S-9, AROCLOR 1254, Method: PREINCUBATION inactive; negative
